Experiments:
[1] = Binimetinib steady state exposure quoted in figure legends; conditions: total
B16F10 tumors = test: Growth of B16F10 melanoma tumors; format: in vivo
Protocol: [The procedure below names another cell line; the source lists this cell line under the same test.] 1% CMC/0.5% Tween-80 (CMCT) was prepared by adding 960 mL of distilled water to a 1000 mL Pyrex® glass bottle with a stir bar in the bottom, and was used as the oral vehicle. The water was warmed to 50-60° C. then 5 mL Tween® 80 (polyoxyethylenesorbitan monooleate, Sigma P2287, batch #054K0154) and 15.6 mL benzyl alcohol (Sigma 402834, Batch #00296PK) added. Carboxymethylcellulose (5 g, CMC, low viscosity, Sigma C5678, Batch #033K0008) was added slowly, over one hour. The solution was stirred until the CMC dissolved and the solution was clear. 30 mg/kg MEK162 (Binimetinib, 100% active) was prepared as a white, homogeneous suspension in CMCT. MEK162 was administered in 10 mL/kg and dosed at 30 mg/kg (3.0 mg/mL) by oral gavage. To prepare, dry test compound (90 mg) was weighed and 30 mL CMCT added. Dose suspension was sonicated until a fine suspension was achieved (˜15 min). Final dose suspension was stored at 4° C. during live phase and sonicated to resuspend prior to dose administration. Dose suspension was prepared every 4-5 days or as needed. 100 μg αPD-1 RMP1-14, Rat IgG2a isotype (BioXCell cat.no. BP0146, lot #5792×2/1015)−7.12 mg/mL stock concentration. RMP1-14 was prepared by dilution of 0.843 stock solution with 5.157 mL sterile saline for injection. The antibody was administered at 100 μg/animal (100 μL of a 1 mg/mL dose solution) by intraperitoneal injection.
Male BALB/c mice from Charles River (Wilmington, Mass.) were obtained at 6-8 weeks of age and housed in groups of 5. Following a two week acclimation period, a suspension of 1×10^5 cells in a volume of 100 μL saline was implanted subcutaneously on the right flank of the animal near the axillary region. Animals were then randomly assigned to treatment groups. Treatment was initiated on day 4 after CT26 tumor cell inoculation to allow for a sufficient treatment window. MEK162 was administered once daily (QD) for 14 consecutive days by oral gavage (PO) at 30 mg/kg and anti-PD1 antibody was administered twice weekly by intraperitoneal injection (IP) (Table 4).
The combination was evaluated as concomitant administration or sequential where MEK162 treatment was initiated at the time that tumor resistance from anti-PD1 treatment emerged. For the sequential treatment group, animals were enrolled in MEK162 treatment when tumors reached 350-400 mm^3 after anti-PD1 antibody therapy was initiated.
Animals were monitored for tumor growth and body weight 2-3 times per week based on outgrowth kinetics. Tumor diameter was measured with digital calipers, and the tumor volume in mm^3 was calculated by the formula: Volume=((width)^2×length)/2. TGI was calculated on day 15. Animals were removed from study if found moribund or if tumor volume exceeded 1400 mm^3. At that time, tumor tissue was harvested and frozen for later analysis of T-cell clonality by immune sequencing (Adaptive Biotech, San Diego, Calif.). […]
The mean values for tumor volume and body weight by study day for each experimental group were plotted including error bars for the standard error of the mean. % Tumor Growth Inhibition (% TGI): % TGI=100(1−Wt/Wc); Wt is the mean tumor volume of the treated group on day X; We is the mean tumor volume of controls on day X, where X is the last day that the control group is available in its entirety. […] Cures: Animals with no palpable tumor at the end of the study were scored as cures. […]

melanoma cell lines = test: MHC class I expression across the panel of eight melanoma cell lines; format: cell-based, human
Protocol: The goal of this study was to measure the effects of binimetinib on cell surface MHC class I expression in various melanoma cell lines. In this study, eight melanoma cell lines were evaluated: MEL-JUSO (NRAS Q61L mutation), IPC-298 (NRAS Q61L mutation), A375 (BRAF V600E, homozygous mutation), HS936.T (NRAS Q61K mutation and BRAF N581K mutation), MM485 (NRAS Q61R mutation), SK-MEL-2 (NRAS Q61R mutation), MM415 (NRAS Q61L mutation), Malme-3M (BRAF V600E, heterozygous mutation). The cells lines were seeded into flat bottom 96-well tissue culture plates at a density of 5000 cells per well and allowed to adhere overnight. The following day cells were treated with vehicle control (0.25% DMSO) or varying dilutions of Binimetinib (0.7 nM-25000 nM) for 1 hour. Cells were then treated with vehicle control or 100 ng/ml IFNgamma (R&D systems) for 72 hours. Cells were washed, trypsinized, and stained with Alexa Fluor® 647 anti-human HLA-A,B,C antibody (W6/32, eBioscience) and analyzed on a BD FACSCanto II flow cytometer. An IFNg titration and time course were performed for assay optimization. Maximal induction of MHC class I expression was seen ˜100 ng/mL of IFNγ (see, e.g., FIGS. 1 and 2).

**Q.** For `Cn1cnc2c(F)c(Nc3ccc(Br)cc3F)c(C(=O)NOCCO)cc21` [Binimetinib, 6-(4-bromo-2-fluorophenylamino)-7-fluoro-3-methyl-3H-benzoimidazole-5-carboxylic acid (2-hydroxyethoxy)-amide], which “Trough (day 15)” value [1] is on record?
**A.** The value was 310 nM.

**Q.** What about the “Cures (day 61)” value (B16F10 tumors; B16F10 tumors) of the same compound?
**A.** Its value is 0/10.

**Q.** And the Deaths (B16F10 tumors; B16F10 tumors)?
**A.** The Deaths was 2/10.

**Q.** What about the “% TGI (day 13)” value (B16F10 tumors; B16F10 tumors, C57BL/6 mice, binimetinib 30 mg/kg, anti-PD-1 100 μg) of the same compound?
**A.** Its value is 59.0%.

**Q.** And the “Median Survival” value (B16F10 tumors; B16F10 tumors, vehicle 14)?
**A.** Its value is 19.

**Q.** What about the “Max % BWL” value (B16F10 tumors; mouse, in vivo) of the same compound?
**A.** The value was 0.8%.

**Q.** And the “melanoma cell lines with increased MHC class I cell surface expression” value (melanoma cell lines; binimetinib alone, eight melanoma cell lines)?
**A.** The value was 6 of 8.

**Q.** What about the “fold increase in MHC class I cell surface expression” value (melanoma cell lines; binimetinib alone, in 6 of 8 melanoma cell lines) of the same compound?
**A.** The value was 1.5-3 fold.

**Q.** What about the “fold increase of IFNg-induced MHC class I” value (melanoma cell lines; with IFNg, all tested cell lines) of the same compound?
**A.** Its value is 1.5-4 fold.
